{"source": "patent US11357780B2", "about": "“Methods and compositions relating to the inhibition of IP6K1” (THE CHILDREN'S MEDICAL CENTER CORPORATION, priority 2018, dated 2022)", "key": {"platelets": {"test_system": "platelets", "assay": "PolyP levels in platelets isolated from TNP-treated mice", "assay_type": "in vivo, mouse", "conditions": "platelets from mice treated with TNP 20 mg/kg once a day for 10 days, vs DMSO-treated controls", "experimental": "(§1) FIG. 6A: PolyP levels in platelets. Mice were treated with TNP or DMSO alone for 10 days (20 mg/kg body weight, once a day). The experiment was repeated three times and the data were pooled and analyzed together. Data shown are means±SEM (n=7 mice per group). FIG. 6B: LPS-induced polyP secretion in neutrophil-platelet co-cultures. Neutrophils (5×10^6) isolated from DMSO (N-DMSO) or TNP (N-TNP)-treated mice and platelets (1×10^9) isolated from DMSO (P-DMSO) or TNP (P-TNP)-treated mice were incubated in the presence of LPS (5 μg/mL) for 2 h at 37° C. Data shown are means±SEM of four experiments. FIG. 6C: LPS-induced NPA formation. Neutrophils and platelets were isolated from DMSO (untreated) and TNP-treated mice and incubated with LPS (1 μg/mL) for 2 h at 37° C. […] NPA formation was analyzed at 24 hr after the LPS instillation. […] FIG. 6H: Recruited neutrophils in alveolar spaces were quantified as volume fraction of the alveolar space using standard point-counting morphometry. […] FIG. 6I: Pulmonary edema formation was quantified as the percentage of edema area in the total parenchymal region using. […] FIG. 6J: Lung vascular permeability was evaluated by BALF total protein level. […] FIG. 6K: Lung wet weight-to-dry weight ratio was measured at 24 hr after E. coli instillation. […] NPA % was calculated as the percentage of CD66+, CD16+ and CD41 triple-positive cells (NPAs) among all CD66+ and CD16+ cells. […]"}, "[1]": {"test_system": "neutrophil-platelet co-cultures", "assay": "LPS-induced polyP secretion in neutrophil-platelet co-cultures", "assay_type": "cell-based, mouse", "conditions": "cells from TNP-treated mice, LPS 5 μg/mL, 2 h, 37° C., vs DMSO-treated controls", "experimental": "as §1"}, "[2]": {"test_system": "neutrophils and platelets", "assay": "Ex vivo neutrophil-platelet aggregate (NPA) formation, FACS", "assay_type": "cell-based, mouse", "experimental": "Neutrophil-platelet aggregation. Mouse and human neutrophils were isolated and purified as previously described (31). Whole blood was collected into ACD tubes and platelet-rich plasma was isolated by centrifuging twice at 100×g for 5 min. Neutrophils (0.5×106) and platelets (5×106) were incubated for 2 h at 37° C. with LPS in 1 ml Tyrode's buffer (Sigma) supplemented with 1% BSA. After incubation, mouse neutrophils and platelets were stained with CD11b, CD41, and Ly6G and analyzed by flow cytometry to detect NPAs. Human neutrophils and platelets were stained with CD66, CD16, and CD41. NPA % was calculated as the percentage of CD66+, CD16+ and CD41 triple-positive cells (NPAs) among all CD66+ and CD16+ cells.\nFlow cytometry. Murine neutrophils and platelets were incubated as described above. Cells were then harvested, washed with ice-cold PBS, and stained with APC0-CD11b (eBioscience), PE-CY7-Ly6G (BD Bioscience), FITC-CD41 (eBioscience), and […] to detect leukocyte and platelet antigens. Samples were examined with a FACSCanto II™ flow cytometer (Becton Dickinson). Neutrophils were gated by their forward- and side-scatter characteristics and by their Ly-6G+/CD11b+ (neutrophil) expression pattern (30). Platelets were detected by CD41 staining NPAs were Ly-6G+CD41+. All data were analyzed using FlowJo™ software (TreeStar; FlowJo LLC)."}, "[3]": {"test_system": "LPS-induced lung inflammation", "assay": "LPS-induced lung inflammation in mice", "assay_type": "in vivo, mouse", "conditions": "TNP-treated mice, 5 mg/kg LPS intratracheal, 24 hr", "experimental": "Bacteria or LPS-induced acute pneumonia. After anesthesia with ketamine hydrochloride (100 mg/kg intraperitoneally (i.p.)) and xylazine (10 mg/kg i.p.), mouse tracheas were surgically exposed and a total volume of 40 μl of saline, a dose of 2×10^6 cfu of E. coli (strain 19138; American Type Culture Collection), a dose of 5×10^8 cfu of Stapyhlococcus aureus (strain 10390; American Type Culture Collection), or the indicated amount of LPS (LPS from E. coli O111:B4 or LPS from E. coli O157:H7; Sigma-Aldrich was instilled intratracheally via an angiocatheter inserted through the trachea and into the left bronchus. Colloidal carbon (1%) was included in the instillate to indicate deposition. […]\nNeutrophil accumulation. […] The total number of cells in the BALF was counted by hemocytometry. […] The percentage of neutrophils in the whole population (% PMN) was determined accordingly. Total numbers of neutrophils (#PMN) recruited was calculated as follows: [#PMN]=[cell density]×volume×[% PMN]. Emigrated neutrophils in the alveolar air spaces were also quantified by morphometric analysis of tissue sections. Emigrated neutrophils in lung sections (5 mice/group) 24 h after infection were quantified using standard point-counting morphometry (7). […] At least three grids (300 points) were counted for each lung. […]"}, "E. coli": {"test_system": "E. coli", "assay": "E. coli-induced bacterial pneumonia in mice", "assay_type": "in vivo, mouse", "experimental": "Bacteria or LPS-induced acute pneumonia. After anesthesia with ketamine hydrochloride (100 mg/kg intraperitoneally (i.p.)) and xylazine (10 mg/kg i.p.), mouse tracheas were surgically exposed and a total volume of 40 μl of saline, a dose of 2×10^6 cfu of E. coli (strain 19138; American Type Culture Collection), a dose of 5×10^8 cfu of Stapyhlococcus aureus (strain 10390; American Type Culture Collection), or the indicated amount of LPS (LPS from E. coli O111:B4 or LPS from E. coli O157:H7; Sigma-Aldrich was instilled intratracheally via an angiocatheter inserted through the trachea and into the left bronchus. Colloidal carbon (1%) was included in the instillate to indicate deposition. After surgery and wound closure, mice were suspended by their front legs to help deliver the instillate deep into the left lobe before being placed back into the cage with soft and warm bedding for recovery. Mice were euthanized by CO2 at each time point. For polyP treatment, Medium Chain Polyphosphate (p100) (Kerafast Inc) was injected intraperitoneally (50 μg/g body weight) 10 min after the instillation of LPS. For treatment with IP6K1 inhibitor TNP (N2-(m-(trifluoromethyl)benzyl) N6-(p-nitrobenzyl)purine), mice were injected intraperitoneally with TNP once a day (20 mg/kg body weight) for 10 days before the induction of lung inflammation. TNP (Tocris Bioscience) was dissolved in DMSO/Tween80/water (1/1/8) at a concentration of 2 mg/ml and was injected directly without dilution.\nNeutrophil accumulation. WT and Ip6k1-KO mice were anesthetized and instilled with bacteria or LPS as described above. After 24 h, mice were euthanized by CO2. The chest cavity was opened and a catheter was tied to the trachea. Bronchoalveolar lavage (BAL) was performed (1 mL PBS/15 mM EDTA×10) in each group. The BAL fluid (BALF) was centrifuged at 450×g for 10 min. The total number of cells in the BALF was counted by hemocytometry. Differential cell counts were conducted on cytospin preparations stained with a modified Wright-Giemsa stain (Volu-Sol, Inc.). Neutrophils were identified by their lobular or segmented nuclei. The percentage of neutrophils in the whole population (% PMN) was determined accordingly. Total numbers of neutrophils (#PMN) recruited was calculated as follows: [#PMN]=[cell density]×volume×[% PMN]. Emigrated neutrophils in the alveolar air spaces were also quantified by morphometric analysis of tissue sections. Emigrated neutrophils in lung sections (5 mice/group) 24 h after infection were quantified using standard point-counting morphometry (7). Briefly, mice were euthanized and their hearts tied off to maintain pulmonary blood volume. Lungs were then excised and fixed by intratracheal instillation of Bouin's solution at a pressure of 23 cm H2O and embedded in paraffin. Five to 6 μm-thick sections were cut and stained with hematoxylin and eosin (H&E). Neutrophils could be easily recognized by their lobular or segmented nuclei under high magnification. A counting grid (10×10, covering 70,000 μm2 of the magnified field) was reflected onto the field of view using a drawing tube. Randomly selected fields of pneumonic peripheral lung largely free of non-capillary blood vessels and bronchioles or larger airways were examined. At least three grids (300 points) were counted for each lung. The relative volumes of the parenchymal regions occupied by emigrated neutrophils were calculated by investigators blinded to the identities of the mice and were expressed as a percentage of the total parenchymal region volume (including both tissue and air spaces).\nBALF total protein levels and cytokine/chemokine levels. BALF samples were obtained from mice 24 h after E. coli challenge. BAL was performed with 1 ml cold PBS/15 mM EDTA flushed in and out three times. Protein concentrations were measured in BALF using the Bio-Rad protein assay reagent. A standard curve was constructed using BSA. […]"}, "human platelets": {"test_system": "human platelets", "assay": "PolyP levels in human platelets", "assay_type": "cell-based", "conditions": "TNP 20 μM, room temperature, 4 days"}, "[4]": {"test_system": "human primary neutrophils and platelets", "assay": "NPA formation between human neutrophils and platelets", "assay_type": "cell-based", "experimental": "as §1"}, "[5]": {"test_system": "PtdIns(3,4,5)P3 signaling", "assay": "PtdIns(3,4,5)P3 signaling (phospho-Akt western blot) in mouse neutrophils", "assay_type": "cell-based", "experimental": "Mice were treated with TNP for 10 days (20 mg/kg body weight, once a day). Bone marrow neutrophils were isolated and lysed. Total/phosphorylated Akt in cell lysates was detected by western blotting. Relative amounts of phosphorylated Akt were quantified with NIH ImageJ™ software. Data shown are means±SEM of four experiments. *p<0.05 vs. neutrophils isolated from mice treated with DMSO alone"}, "[6]": {"test_system": "PtdIns(3,4,5)P3 signaling", "assay": "PtdIns(3,4,5)P3 signaling in human neutrophils", "assay_type": "cell-based", "conditions": "human neutrophils treated with TNP"}}, "note": "Entries after “also recorded” stand apart in the source; their conditions may differ."}
{"molecule": "O=[N+]([O-])c1ccc(CNc2nc(NCc3cccc(C(F)(F)F)c3)nc3nc[nH]c23)cc1", "note": "[TNP, N2-(m-(trifluoromethyl)benzyl) N6-(p-nitrobenzyl)purine]", "values": [{"measurement": "intracellular polyP levels in platelets", "setting": "platelets", "value": "reduced"}, {"measurement": "LPS-elicited polyP secretion", "setting": "[1]", "value": "reduced"}, {"measurement": "LPS-induced ex vivo NPA formation", "setting": "[2]; neutrophils and platelets from TNP-treated mice, LPS 1 μg/mL, 2 h", "value": "inhibited"}, {"measurement": "infection-induced NPA formation in the lungs of live mice", "setting": "[3]", "value": "inhibited"}, {"measurement": "bactericidal activity (bacterial killing in inflamed lungs)", "setting": "E. coli; TNP 20 mg/kg i.p. once a day for 10 days before E. coli instillation", "value": "much improved"}, {"measurement": "edema formation", "setting": "E. coli; TNP-treated mice", "value": "less edema formation"}, {"measurement": "neutrophil accumulation in the inflamed lungs, BALF neutrophil counts", "setting": "E. coli; TNP-treated mice", "value": "suppressed"}, {"measurement": "neutrophil accumulation in the inflamed lungs, morphometric analysis of lung sections", "setting": "E. coli; TNP-treated mice", "value": "suppressed"}, {"measurement": "total BALF protein levels", "setting": "E. coli; TNP-treated mice", "value": "decreased"}, {"measurement": "pulmonary vascular permeability by lung wet-to-dry ratio", "setting": "E. coli; TNP-treated mice, 24 hr after E. coli instillation", "value": "reduction"}, {"measurement": "polyP levels in human platelets", "setting": "human platelets", "value": "reduced"}, {"measurement": "NPA formation", "setting": "[4]; TNP-treated neutrophils and untreated platelets", "value": "unaltered"}, {"measurement": "LPS-induced NPA formation", "setting": "[4]; human primary neutrophils and platelets treated with TNP", "value": "suppressed"}, {"measurement": "PtdIns(3,4,5)P3-mediated cellular functions", "setting": "[5]; mouse neutrophils treated with TNP", "value": "elevated"}, {"measurement": "PtdIns(3,4,5)P3 signaling, assessed by phospho-Akt", "setting": "[5]; mouse neutrophils, TNP 20 mg/kg once a day for 10 days, bone marrow neutrophils", "value": "substantially enhanced; also recorded: elevated"}, {"measurement": "PtdIns(3,4,5)P3-mediated cellular functions", "setting": "[6]", "value": "elevated"}, {"measurement": "PtdIns(3,4,5)P3 signaling", "setting": "[6]", "value": "substantially enhanced"}]}
{"molecule": "HOE140", "values": [{"measurement": "LPS-induced NPA formation", "setting": "[2]; neutrophils pretreated with HOE140 150 nM for 5 min", "value": "inhibited"}]}
{"molecule": "LYS-BK", "values": [{"measurement": "NPA formation between IP6K1-deficient platelets and neutrophils", "setting": "[2]; Lys-BK 1 μM together with HKa", "value": "could not restore NPA formation"}]}
{"molecule": "MIP2: a common proinflammatory cytokine (protein, UniProt P10889 28-100, looked up) C-X-C motif chemokine 2: AVVASELRCQCLKTLPRVDFKNIQSLSVTPPGPHCAQTEVIATLKGGQKVCLDPEAPLVQKIIQKILNKGKAN", "values": [{"measurement": "NPA formation", "setting": "[2]; MIP2 1 nM in place of LPS", "value": "failed to induce the same NPA formation"}]}
